pIC50: −log10 of the molar value.
Experiments:
[1] = test system: REL-A (p65) nuclear translocation, HeLa cells; experiment: REL-A (p65) nuclear translocation assay in HeLa cells (classical NF-kB signaling, TNF-α stimulated); format: cell-based; settings: Homo sapiens, 0.5 h; HeLa cells, 10 ng/mL TNF-α for 30 minutes; read-out: REL-A HeLa Transloc Assay (IC50)
Experimental: (§1) Several assays were developed to profile the cellular activities of NIK inhibitors.
(§2) (2) A second set of cell assay are used to define the selectivity of NIK inhibitors toward inhibition of classical vs. non-classical NF-kB signaling and rely on quantification of the nuclear translocation of p52 (NF-kB2) and REL-A (p65) using high content cellular imaging. For the p52 (non-classical NF-kB signaling) nuclear translocation assay, HeLa cells are treated with different concentrations of compounds (0.2% DMSO final) in medium containing 10% fetal bovine serum and then stimulated with 100 ng/mL of an anti-lymphotoxin beta receptor antibody (R&D Systems) for 5 hours. In the REL-A nuclear translocation assay, HeLa cells are incubated with compounds (0.2% DMSO final) for 4.5 hours in medium containing 10% fetal bovine serum before stimulating them with 10 ng/mL tumor necrosis factor (TNF)-α (R&D Systems) for 30 minutes. Cells are fixed with 4% paraformaldehyde, permeabilized by adding 0.1% Triton X-100 in phosphate buffered saline, and then are incubated with either 2 ug/mL anti-p52 antibody (Millipore) or 400 ng/mL anti-REL-A (p65) antibody (Santa Cruz Biotechnology). Finally, the cells are incubated with an Alexa488-labeled secondary antibody (Invitrogen) and DRAQ5 DNA stain (Biostatus). Imaging is carried out using an Opera reader (Perkin Elmer) and data are analyzed with the aid of Acapella software (Perkin Elmer). The p52 or REL-Atranslocation into the nucleus is quantified by the ratio of the nuclear to cytoplasmic signal intensity. […] The compounds in listed in Table 1 have the corresponding inhibitory value (IC50 in micromolar) for NIK p52 Translocation Assay as set forth in Table 2.
(§3) The compounds in listed in Table 1 have the corresponding inhibitory values (IC50 in micromolar) for the Translocation Assays as set forth in Table 2.

[2] = test system: p52 (NF-kB2) nuclear translocation, HeLa cells; experiment: p52 (NF-kB2) nuclear translocation assay in HeLa cells (non-classical NF-kB signaling, anti-lymphotoxin beta receptor antibody stimulated); format: cell-based; settings: Homo sapiens, 100 ng/mL anti-lymphotoxin beta receptor antibody for 5 hours, read-out: p52 HeLa Transloc Assay (IC50)
Experimental: as §1, §2, §3

[3] = target: nuclear factor-kappa B (NF-kB)-inducing kinase (NIK) (Homo sapiens (Human), UniProt Q99558); experiment: NIK enzyme inhibition assay (Transcreener ADP, NIK ADP-FP); format: biochemical; settings: purified NIK 0.5 nM, 10 μM ATP, fluorescence polarization; read-out: NIK ADP-FP (Ki μM)
nuclear factor-kappa B (NF-kB)-inducing kinase (NIK), sequence (Q99558 whole entry): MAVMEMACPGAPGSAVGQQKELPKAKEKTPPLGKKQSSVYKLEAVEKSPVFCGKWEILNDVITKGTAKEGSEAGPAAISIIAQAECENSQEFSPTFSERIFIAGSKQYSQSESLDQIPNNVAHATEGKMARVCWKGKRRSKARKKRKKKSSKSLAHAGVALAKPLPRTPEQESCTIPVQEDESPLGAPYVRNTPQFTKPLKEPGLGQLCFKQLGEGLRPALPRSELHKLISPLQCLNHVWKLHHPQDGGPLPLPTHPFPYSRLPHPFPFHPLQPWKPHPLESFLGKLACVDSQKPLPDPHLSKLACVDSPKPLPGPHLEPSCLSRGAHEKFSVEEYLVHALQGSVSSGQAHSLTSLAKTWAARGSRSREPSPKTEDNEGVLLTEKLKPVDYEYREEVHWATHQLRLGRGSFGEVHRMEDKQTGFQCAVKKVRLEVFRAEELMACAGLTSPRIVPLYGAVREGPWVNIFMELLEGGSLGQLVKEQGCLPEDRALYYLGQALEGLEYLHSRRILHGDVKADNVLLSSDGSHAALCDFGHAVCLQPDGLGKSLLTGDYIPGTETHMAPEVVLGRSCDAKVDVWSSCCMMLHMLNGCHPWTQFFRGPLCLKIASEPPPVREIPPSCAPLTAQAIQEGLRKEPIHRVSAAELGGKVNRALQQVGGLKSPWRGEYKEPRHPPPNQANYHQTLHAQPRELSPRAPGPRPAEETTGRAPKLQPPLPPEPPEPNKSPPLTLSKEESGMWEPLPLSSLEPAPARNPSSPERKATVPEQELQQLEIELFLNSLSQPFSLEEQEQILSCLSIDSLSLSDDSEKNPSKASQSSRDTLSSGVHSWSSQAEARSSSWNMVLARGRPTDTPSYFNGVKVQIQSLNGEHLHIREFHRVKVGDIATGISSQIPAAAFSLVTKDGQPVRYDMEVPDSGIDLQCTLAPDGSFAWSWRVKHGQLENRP

Row | SMILES | pIC50 [1] | pIC50 [2] | Ki [3] [nM]
1 | CN1CC[C@@](O)(C#Cc2ccnc(-n3nc(C(N)=O)c4c3CCC4)c2)C1=O [Compound 56, 1-[4-[2-[(3R)-3-hydroxy-1-methyl-2-oxo-pyrrolidin-3-yl]ethynyl]-2-pyridyl]-5,6-dihydro-4H-cyclopenta[c]py-razole-3-carboxamide] | 4.70 | 6.45 | 0.87
2 | CN1CC[C@@](O)(C#Cc2cccc(-n3nc(C(N)=O)c4c3CCCC4)c2)C1=O [Compound 57, 1-[3-[2-[(3R)-3-hydroxy-1-methyl-2-oxo-pyrrolidin-3-yl]ethynyl]phenyl]-4,5,6,7-tetra-hydroindazole-3-carbox-amide] | 4.70 | 6.39 | 1.4
3 | Cc1cc([C@](C)(O)C#Cc2ccnc(-n3nc(C(N)=O)c4c3CCCC4)c2)no1 [Compound 60, 1-[4-[(3R)-3-hydroxy-3-(5-methylisoxazol-3-yl)but-1-ynyl]-2-pyridyl]-4,5,6,7-tetra-hydroindazole-3-carbox-amide] | 4.70 | 5.64 | 13.7
4 | CN1CC[C@@](O)(C#Cc2ccnc(-n3nc(C(N)=O)c4ccc(F)cc43)c2)C1=O [Compound 63, 6-fluoro-1-[4-[2-[(3R)-3-hy-droxy-1-methyl-2-oxo-pyrroli-din-3-yl]ethynyl]-2-pyri-dyl]indazole-3-carboxamide] | 5.70 | 7.57 | 0.1
5 | CN1CC[C@@](O)(C#Cc2ccnc(-n3nc(C(N)=O)c4c3CCC(C)(C)C4)c2)C1=O [Compound 64, 1-[4-[2-[(3R)-3-hydroxy-1-methyl-2-oxo-pyrrolidin-3-yl]ethynyl]-2-pyridyl]-5,5-dimethyl-6,7-dihydro-4H-inda-zole-3-carboxamide] | 5.52 | 5.64 | 3.06
6 | COc1ccc2c(c1)c(C(N)=O)nn2-c1cc(C#C[C@]2(O)CCN(C)C2=O)ccn1 [Compound 65, 1-[4-[2-[(3R)-3-hydroxy-1-methyl-2-oxo-pyrrolidin-3-yl]ethynyl]-2-pyridyl]-5-meth-oxy-indazole-3-carboxamide] | 5.70 | 7.85 | 0.05
7 | CN1CC[C@@](O)(C#Cc2ccnc(-n3nc(C(N)=O)c4cc(Br)ccc43)c2)C1=O [Compound 66, 5-bromo-1-[4-[2-[(3R)-3-hy-droxy-1-methyl-2-oxo-pyrroli-din-3-yl]ethynyl]-2-pyri-dyl]indazole-3-carboxamide] | 4.70 | 7.26 | 0.15
8 | Cc1nnc([C@](C)(O)C#Cc2cccc(-n3nc(C(N)=O)c4cccnc43)c2)o1 [Compound 67, 1-[3-[(3R)-3-hydroxy-3-(5-methyl-1,3,4-oxadiazol-2-yl)but-1-ynyl]phenyl]pyrazo-lo[3,4-b]pyridine-3-carbox-amide] | 4.70 | 6.05 | 3.14
9 | CN1CC[C@@](O)(C#Cc2cccc(-n3nc(C(N)=O)c4c3COCC4)c2)C1=O [Compound 69, 1-[3-[2-[(3R)-3-hydroxy-1-methyl-2-oxo-pyrrolidin-3-yl]ethynyl]phenyl]-5,7-dihy-dro-4H-pyrano[3,4-c]pyrazole-3-carboxamide] | 4.70 | 6.02 | 3.98
10 | CN1CC[C@@](O)(C#Cc2cccc(-n3nc(C(N)=O)c4c3CCOC4)c2)C1=O [Compound 70, 1-[3-[2-[(3R)-3-hydroxy-1-methyl-2-oxo-pyrrolidin-3-yl]ethynyl]phenyl]-6,7-dihy-dro-4H-pyrano[4,3-c]pyrazole-3-carboxamide] | 4.70 | 6.06 | 0.75
11 | NC(=O)c1nn(-c2cc(C#C[C@]3(O)CCNC3=O)ccn2)c2cc(F)ccc12 [Compound 71, 6-fluoro-1-[4-[2-[(3R)-3-hy-droxy-2-oxo-pyrrolidin-3-yl]ethynyl]-2-pyridyl]indazole-3-carboxamide] | 4.70 | 6.75 | 0.64

From US9605005B2, “Alkynyl alcohols and methods of use” (Genentech, Inc., priority 2013, dated 2017)
